From patent US20260078120A1, “SUBSTITUTED PYRIDOPYRIMIDINONES” (MIRATI THERAPEUTICS, INC., priority 2022, published 2026)

Key:
Format in all cases: cell-based
[1] = system: T47D (PI3Kα H1047R mutant) cells; assay: Inhibition of pAKT formation, alphaLISA SureFire Ultra AKT 1/2/3 (pS473), T47D cells; settings: Homo sapiens, T47D, T47D (PI3Kα H1047R mutant) cells; inhibition of pAKT (pS473) formation; approximately one hour or 24 hours treatment; read-out: T47D pAKT (H1047R mutant) IC50
In short: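 AKT Ser473 phosphorylation was quantified by alphaLISA SureFire Ultra after roughly 1 h or 24 h compound exposure at 37 °C. Cells were T47D (12,000/well in HBSS), treated with a 10-point 1:4 series starting at 10.4 μM. Percent of control used alpelisib background and DMSO reference, and IC50 came from four-parameter logistic fitting.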

[2] = system: MKN1 (PI3Kα E545K mutant) cells; assay: Inhibition of pAKT formation, alphaLISA SureFire Ultra AKT 1/2/3 (pS473), MKN1 cells; settings: Homo sapiens, MKN-1; MKN1 (PI3Kα E545K mutant) cells; inhibition of pAKT (pS473) formation; approximately one hour or 24 hours treatment; read-out: MKN1 (E545K) pAKT IC50
Description: (§1) The ability of a compound of Formula (I) to inhibit the formation of pAKT was measured using alphaLISA Surefire Ultra AKT 1/2/3 (pS473) Assay Kit (#ALSU-PAKT-B50K) was obtained from Perkin Elmer (Waltham, MA).
(§2) To prepare assay plates for pAKT alphaLISA assays, cells were trypsinized, resuspended in fresh media, and viable cells were counted utilizing trypan blue exclusion. Prior to seeding, cells were washed with PBS and resuspended in HBSS (Gibco, #14025092). T47D (12,000/w), SKBR3(12,000/w), or MKN1(24,000/w) cells were seeded at 12 μl per well in a solid white flat bottom 384 cell culture plate (Perkin Elmer #6007680).
(§3) Immediately after seeding, cells were dosed using an Echo Liquid Handler (Beckman Coulter) with compounds at a […] starting concentration and serially diluted (1:4) for a total of 10 concentrations. […] Cells were incubated with the compounds (solubilized in DMSO) for approximately one hour or 24 hours at 37° C. After one hour (or 24 hours) of treatment, cells were lysed with 3 μl of the 5× lysis buffer (provided and incubated at room temperature for 15 min on a microtiter plate shaker). Once cells were sufficiently lysed, 7.5 μl of the acceptor bead mix (made using the manufacturers recommended dilutions) was added to each well and left on the microtiter plate shaker for 1 min prior to incubating plates at room temperature for one hour, in the absence of light. After one hour of incubation with the acceptor bead mix, 7.5 μl of the donor bead mix (made using the manufacturers recommended dilutions) was added to each well and left on the microtiter plate shaker for 1 min prior to incubating plates at room temperature overnight in the absence of light. Plates were then imaged the following day using a CLARIOstar microplate reader (BMG Labtech, Germany).
(§4) Percent of control values were calculated by subtracting the average signal from the positive control (alpelisib) treated wells from all treated wells (including DMSO control wells) and then divided by the average signal from the vehicle DMSO treated control wells. Percent of vehicle control values were plotted as log (inhibitor) vs. response-Variable slope (four parameters) for curve fitting and IC50 values were determined using XLfit.
(§5) Key: N.D. =not determined

[3] = system: SKBR3 (PI3Kα wild type) cells; assay: Inhibition of pAKT formation, alphaLISA SureFire Ultra AKT 1/2/3 (pS473), SKBR3 cells; settings: Homo sapiens, SK-BR-3; Inhibition of pAKT in SKBR3 (PI3Kα wild type) cells; read-out: SKBR3 (WT) pAKT IC50 (nM) (H1047R mutant) IC50
Description: as §1, §2, §3, §4, §5

[4] = system: T47D (PI3Kα H1047R mutant) cells; assay: CellTiter-Glo 2.0 luminescent cell viability assay, 72 hours, T47D cells; settings: Homo sapiens, T47D, 72 h, T47D (PI3Kα H1047R mutant) cells, CellTiter-Glo, approximately 72 hours; read-out: T47D (H1047R mutant) Viability IC50
In short: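 Viability was measured by CellTiter-Glo 2.0 luminescence after approximately 72 h of compound exposure at 37° C. Plating was 1000 cells per well the day before dosing, with ten 1:4 dilutions from a 10 µM top concentration. Values as percent of vehicle were fitted by variable-slope log(inhibitor) regression to give IC50.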

[5] = system: MKN1 (PI3Kα E545K mutant) cells; assay: CellTiter-Glo 2.0 luminescent cell viability assay, 72 hours, MKN1 cells; settings: Homo sapiens, MKN-1; MKN1 (PI3Kα E545K mutant) cells, CellTiter-Glo, approximately 72 hours; read-out: MKN1 (E545K) Viability IC50
Description: This Example illustrates that exemplary compounds of the present invention decrease the viability of cells.
The ability of a compound of Formula (I) to decrease the viability of cells was measured using CellTiter-Glo 2.0 (CTG) Luminescent Cell Viability Assay (#G9241) obtained from Promega (Madison, WI).
To prepare assay plates for viability assays, cells were trypsinized, resuspended in fresh media, and viable cells were counted utilizing trypan blue exclusion. T47D, SKBR3, or MKN1 cells were seeded at 1000 cells in 30 μl per well in a solid white flat bottom 384 cell culture plate (Perkin Elmer #6007680) and incubated at 37° C. overnight.
Assay day 1, cells were dosed using an Echo Liquid Handler (Beckman Coulter) with compounds at a 10 um starting concentration and serially diluted (1:4) for a total of 10 concentrations. Cells were incubated for approximately 72 hours with the compounds (solubilized in DMSO) at 37° C. After 72 hours of treatment, cell plates were equilibrated to room temperature before adding 15 μl of CTG to each well, plates were then covered in aluminum foil to protect from light, incubated at room temperature for 30 minutes on a microtiter plate shaker, and luminescence readings were collected using a CLARIOstar microplate reader (BMG Labtech, Germany). Percent of vehicle control values were plotted as log (inhibitor) vs. response-Variable slope (four parameters) for curve fitting and IC50 values were determined using XLfit.

[6] = system: SKBR3 (PI3Kα wild type) cells; assay: CellTiter-Glo 2.0 luminescent cell viability assay, 72 hours, SKBR3 cells; settings: Homo sapiens, SK-BR-3, 72 h, SKBR3 (PI3Kα wild type) cells, CellTiter-Glo, approximately 72 hours; read-out: SKBR3 (WT) Viability IC50
In short: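 Viability measured via CTG luminescence following roughly 72 hours of compound exposure at 37° C. Dosing used a 10 um starting concentration diluted 1:4 over 10 points; percent-of-vehicle data fitted with a variable-slope four-parameter model for IC50.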

| SMILES | IC50 [1] | IC50 [2] | IC50 [3] | IC50 [4] | IC50 [5] | IC50 [6] |
| --- | --- | --- | --- | --- | --- | --- |
| Cc1cc(C(C)Nc2ccccc2C(=O)O)c2nc(N3CCCCC3)c(C#N)c(=O)n2c1 (stereo not drawn) [Example 8-1, 2-((1-(3-cyano-7-methyl-4-oxo-2-(piperidin-1-yl)-4H-pyrido[1,2-a]pyrimidin-9-yl)ethyl)amino)benzoic acid] | 0.054 µM | 5.54 µM | 932 nM | 0.166 µM | 9.68 µM | > 10 µM |
| COc1cccc(NC(C)c2cc(C)cn3c(=O)cc(N4CCCCC4)nc23)c1C(=O)O (stereo not drawn) [Example 3-3, 2-methoxy-6-((1-(7-methyl-4-oxo-2-(piperidin-1-yl)-4H-pyrido[1,2-a]pyrimidin-9-yl)ethyl)amino)benzoic acid] | 2.73 µM | > 10 µM | > 10000 nM | > 10 µM | > 10 µM | > 10 µM |
| Cc1cc(C(C)NC(=O)CCl)c2nc(N3CCCCC3)cc(=O)n2c1 (stereo not drawn) [Example 4-3, 2-chloro-N-(1-(7-methyl-4-oxo-2-(piperidin-1-yl)-4H-pyrido[1,2-a]pyrimidin-9-yl)ethyl)acetamide] | > 10 µM | > 10 µM | > 10000 nM | > 10 µM | 6.14 µM | 4.84 µM |
| Cc1cc(C(C)Nc2ccccc2C(=O)O)c2nc(OCc3ccccc3)cc(=O)n2c1 (stereo not drawn) [Example 9-3, 2-((1-(2-(benzyloxy)-7-methyl-4-oxo-4H-pyrido[1,2-a]pyrimidin-9-yl)ethyl)amino)benzoic acid] | 0.129 µM | > 10 µM | > 10000 nM | 4.45 µM | 3.78 µM | 4.77 µM |
| Cc1cc(C(C)Nc2ccccc2O)c2nc(N3CCCCC3)cc(=O)n2c1 (stereo not drawn) [Example 3-16, 9-(1-((2-hydroxyphenyl)amino)ethyl)-7-methyl-2-(piperidin-1-yl)-4H-pyrido[1,2-a]pyrimidin-4-one] | > 10 µM | > 10 µM | > 10000 nM | > 10 µM | > 10 µM | 9.3 µM |
| Cc1cc(C(C)Oc2ccccc2C(=O)O)c2nc(N3CCCCC3)cc(=O)n2c1 (stereo not drawn) [Example 3-9, 2-(1-(7-methyl-4-oxo-2-(piperidin-1-yl)-4H-pyrido[1,2-a]pyrimidin-9-yl)ethoxy)benzoic acid] | > 10 µM | > 10 µM | 583 nM | > 10 µM | > 10 µM | > 10 µM |
| Cc1cc(C(C)Nc2ccccc2C(O)C(F)(F)F)c2nc(N3CCCCC3)cc(=O)n2c1 (stereo not drawn) [Example 3-18, 7-methyl-2-(piperidin-1-yl)-9-(1-((2-(2,2,2-trifluoro-1-hydroxyethyl)phenyl)amino)ethyl)-4H-pyrido[1,2-a]pyrimidin-4-one] | 1.39 µM | > 10 µM | > 10000 nM | 4.2 µM | > 10 µM | > 10 µM |
| Cc1cc(C(C)Nc2ccccc2C#N)c2nc(N3CCCCC3)cc(=O)n2c1 (stereo not drawn) [Example 3-11, 2-((1-(7-methyl-4-oxo-2-(piperidin-1-yl)-4H-pyrido[1,2-a]pyrimidin-9-yl)ethyl)amino)benzonitrile] | > 10 µM | > 10 µM | > 10000 nM | > 10 µM | > 10 µM | > 10 µM |
| Cc1cc([C@@H](C)Nc2ccccc2C(=O)O)c2nc(N3Cc4ccccc4C3)c(C)c(=O)n2c1 (single isomer, unassigned) [Example 5-9-2] | 3.01 µM | > 10 µM | > 10000 nM | 9.68 µM | > 10 µM | > 10 µM |
| Cc1cc(C(C)Nc2cccc3cn[nH]c23)c2nc(N3CCCCC3)cc(=O)n2c1 (stereo not drawn) [Example 3-17, 9-(1-((1H-indazol-7-yl)amino)ethyl)-7-methyl-2-(piperidin-1-yl)-4H-pyrido[1,2-a]pyrimidin-4-one] | > 10 µM | > 10 µM | > 10000 nM | > 10 µM | > 10 µM | 9.77 µM |

The next molecules have a lower IC50 [1] than those just listed; values first:

| IC50 [1] | IC50 [2] | IC50 [3] | IC50 [4] | IC50 [5] | IC50 [6] | SMILES |
| --- | --- | --- | --- | --- | --- | --- |
| 0.017 µM | > 10 µM | > 10000 nM | 3.79 µM | > 10 µM | > 10 µM | CCc1cc(C(C)Nc2ccccc2C(=O)O)c2nc(N3CCCCC3)cc(=O)n2c1 (stereo not drawn) [Example 5-8, 2-((1-(7-ethyl-4-oxo-2-(piperidin-1-yl)-4H-pyrido[1,2-a]pyrimidin-9-yl)ethyl)amino)benzoic acid] |
| 0.0149 µM | 2.5 µM | > 10000 nM | 1.27 µM | > 10 µM | > 10 µM | Cc1cc([C@@H](C)Nc2ccccc2C(=O)O)c2nc(N3CCCCC3)cc(=O)n2c1 (single isomer, unassigned) [Example 3-1] |
| 0.0117 µM | 0.271 µM | 4550 nM | 0.316 µM | > 10 µM | > 10 µM | Cc1cc([C@H](C)Nc2ccccc2C(=O)O)c2nc(N3Cc4ccccc4C3)c(C)c(=O)n2c1 (single isomer, unassigned) [Example 5-9-1] |
| 0.0259 µM | > 10 µM | > 10000 nM | 9.97 µM | > 10 µM | > 10 µM | CC(Nc1ccccc1C(=O)O)c1cccn2c(=O)cc(N3Cc4ccccc4C3)nc12 (stereo not drawn) [9-4, 2-((1-(2-(isoindolin-2-yl)-4-oxo-4H-pyrido[1,2-a]pyrimidin-9-yl)ethyl)amino)benzoic acid] |
| 0.021 µM | 3.5 µM | 683 nM | 0.43 µM | > 10 µM | > 10 µM | Cc1cc(C(C)Nc2ccccc2C(=O)O)c2nc(N3Cc4ccccc4C3)c(C)c(=O)n2c1 (stereo not drawn) [Example 5-9, 2-((1-(2-(isoindolin-2-yl)-3,7-dimethyl-4-oxo-4H-pyrido[1,2-a]pyrimidin-9-yl)ethyl)amino)benzoic acid] |
| 0.0383 µM | 1.19 µM | 2800 nM | 0.367 µM | > 10 µM | > 10 µM | Cc1cc(C(C)Nc2ccc(Cl)nc2C(=O)O)c2nc(N3CCCCC3)cc(=O)n2c1 (stereo not drawn) [Example 3-19, 6-chloro-3-((1-(7-methyl-4-oxo-2-(piperidin-1-yl)-4H-pyrido[1,2-a]pyrimidin-9-yl)ethyl)amino)picolinic acid] |
